The Deep4Chem optical property database

Experiment: photoluminescence quantum yield (fraction); solvent given as SMILES
[1] = in c1ccc2c(c1)c1ccccc1n2-c1ccc(-c2ccc(-n3c4ccccc4c4ccccc43)cc2)cc1

With `COc1cc(/C=C/c2cc(OC)c(-c3nc(-c4ccccc4)c(-c4ccccc4)[nH]3)cc2OC)c(OC)cc1/C=C/c1cc(OC)c(-c2nc(-c3ccccc3)c(-c3ccccc3)[nH]2)cc1OC` the photoluminescence quantum yield (in C1CCOC1) was 0.54, the photoluminescence quantum yield (in CC#N) was 0.24 and the photoluminescence quantum yield (in CN(C)C=O) was 0.42. It also gave a photoluminescence quantum yield (in Cc1ccccc1) of 0.63.
With `CN1C(=O)/C(=C/c2ccncc2)N=C1/C=C/c1ccncc1` the photoluminescence quantum yield (in C1COCCO1) was 0.048, the photoluminescence quantum yield (in CC#N) was 0.033 and the photoluminescence quantum yield (in CCO) was 0.028. For the same molecule, the photoluminescence quantum yield (in CCOC(C)=O) was 0.041 and the photoluminescence quantum yield (in O) was 0.013.
`COC1=[N+]2C(=C(c3ccccc3)c3ccc(OC)n3[B-]2(F)F)C=C1SC#N` showed a photoluminescence quantum yield (in CC#N) of 0.11, a photoluminescence quantum yield (in CCCCCC) of 0.15 and a photoluminescence quantum yield (in CCOC(C)=O) of 0.14. For the same molecule, the photoluminescence quantum yield (in CO) was 0.14 and the photoluminescence quantum yield (in ClCCl) was 0.19.
`COc1ccc2ncccc2c1` showed a photoluminescence quantum yield (in CC#N) of 0.071, a photoluminescence quantum yield (in CCCC#N) of 0.075 and a photoluminescence quantum yield (in Cc1ccccc1) of 0.014.
Molecule `Oc1ccc(C2=[N+]3C(=C(c4ccccc4)c4cccn4[B-]3(F)F)C=C2)cc1` has a photoluminescence quantum yield (in ClC(Cl)Cl) of 0.06.
Work on `Cc1ccc(-c2ccc(/C=C/c3ccc(Cl)cc3)cn2)nc1` yielded a photoluminescence quantum yield (in CC#N) of 0.76.
`CCCc1ccc(C#Cc2cc(C#Cc3ccc(N(C)C)cc3)c3ccc4c(C#Cc5ccc(N(C)C)cc5)cc(C#Cc5ccc(N(C)C)cc5)c5ccc2c3c54)cc1` gave a photoluminescence quantum yield (in ClCCl) of 0.47.
In the case of `CCCCCCCCCCOc1cc(OCCCCCCCCCC)cc(C2=C3C(/C=C/c4ccc(OC)cc4)=CC(/C=C/c4ccc(OC)cc4)=[N+]3[B-](F)(F)n3c(/C=C/c4ccc(OC)cc4)cc(C=Cc4ccc(OC)cc4)c32)c1`, the photoluminescence quantum yield (in ClC(Cl)Cl) is reported as 0.34.
For `COc1ccc2c(C=C(C#N)C#N)cc3ccc4cc(C=C(C#N)C#N)c5ccc(OC)cc5c4c3c2c1`, the photoluminescence quantum yield (in ClC(Cl)Cl) was 0.23.
In the case of `COc1ccc2c3ccc(OC)cc3n(-c3ccc(-c4nnc(-c5c(C(C)C)cc(C(C)C)cc5C(C)C)o4)cc3)c2c1`, the photoluminescence quantum yield (in Cc1ccccc1) is reported as 0.03.
Work on `CCCCCCCc1ccc(C2=[N+]3C(=C4c5cc(OCC(CC)CC)c(-c6ccc(CCCCCCC)o6)n5[B-](F)(F)[n+]5nnn(c54)[B-]3(F)F)C=C2OCC(CC)CC)o1` yielded a photoluminescence quantum yield (in C1CCOC1) of 0.04 and a photoluminescence quantum yield (in ClCCl) of 0.02.
Work on `CC[N+](CC)=c1ccc2cc3c(oc-2c1)-c1ccc(N(C)C)cc1CC3` yielded a photoluminescence quantum yield (in CCO) of 0.618, a photoluminescence quantum yield (in ClCCl) of 0.724 and a photoluminescence quantum yield (in O) of 0.282.
For `Cc1cc(C)c(B(c2c(C)cc(C)cc2C)N2c3ccccc3C3(c4ccccc4-c4ccccc43)c3ccccc32)c(C)c1`, the photoluminescence quantum yield (in C1CCCCC1) was 0.978, the photoluminescence quantum yield (in Cc1ccccc1) was 0.942 and the photoluminescence quantum yield (in ClCCl) was 0.539.
With `c1ccc2c(c1)c1ccccc1c1[nH]c(-c3ccc(-c4nc5c6ccccc6c6ccccc6c5[nH]4)cc3)nc21` the photoluminescence quantum yield (in C1CCOC1) was 0.79, the photoluminescence quantum yield (in CC#N) was 0.76 and the photoluminescence quantum yield (in CCO) was 0.77. The photoluminescence quantum yield (in CS(C)=O) was 0.78 and the photoluminescence quantum yield (in ClCCl) was 0.76.
For `F[B-]1(F)n2c(cc(Br)c2Br)C(c2ccccc2)=C2C=C(Br)C(c3ccc[nH]3)=[N+]21`, the photoluminescence quantum yield (in ClC(Cl)Cl) was 0.47.
With `N#CC1=CC(C=O)=CC(C#N)=P1(c1ccccc1)c1ccccc1` the photoluminescence quantum yield (in ClC(Cl)Cl) was 0.72.
For `O=C1c2ccc(-c3ccc(N(c4ccc(-c5ccccc5)cc4)c4ccc(-c5ccccc5)cc4)cc3)cc2C(=O)c2ccc(-c3ccc(N(c4ccc(-c5ccccc5)cc4)c4ccc(-c5ccccc5)cc4)cc3)cc21`, the photoluminescence quantum yield (in Cc1ccccc1) was 0.62 and the photoluminescence quantum yield [1] was 0.76.
For `O=c1c2cccc3cccc(c32)c2nc3c4ccccc4c4ccccc4c3n12`, the photoluminescence quantum yield (in ClCCl) was 0.15.
In the case of `CCCCCCCCCCCCCCCCOc1cc(C#Cc2ccc3ccccc3c2-c2c(C#Cc3cc(OCCCCCCCCCCCCCCCC)c(C#Cc4ccc(C=C(C#N)C#N)cc4)cc3OCCCCCCCCCCCCCCCC)ccc3ccccc23)c(OCCCCCCCCCCCCCCCC)cc1C#Cc1ccc(C=C(C#N)C#N)cc1`, the photoluminescence quantum yield (in Brc1ccccc1) is reported as 0.63, the photoluminescence quantum yield (in C1CCCCC1) is reported as 0.99 and the photoluminescence quantum yield (in C1CCOC1) is reported as 0.3. The photoluminescence quantum yield (in C1COCCO1) was 0.94, the photoluminescence quantum yield (in CCCCCC) was 0.98 and the photoluminescence quantum yield (in CCCCCCCCO) was 0.52. For the same molecule, the photoluminescence quantum yield (in CCCCOCCCC) was 0.97, the photoluminescence quantum yield (in CCOC(C)=O) was 0.37 and the photoluminescence quantum yield (in CCOCC) was 0.87. It also gave a photoluminescence quantum yield (in Cc1ccccc1) of 0.95, a photoluminescence quantum yield (in ClC(Cl)(Cl)Cl) of 0.95 and a photoluminescence quantum yield (in ClC(Cl)Cl) of 0.81. It also gave a photoluminescence quantum yield (in ClCCl) of 0.23.
Molecule `C(=C\c1ncc2ccccc2n1)/c1ccc(N(c2ccccc2)c2ccccc2)cc1` has a photoluminescence quantum yield (in ClCCl) of 0.61.
Molecule `COc1ccc(-c2nc(-c3ccc(C)cc3)c3ccccn23)cc1` has a photoluminescence quantum yield (in ClC(Cl)Cl) of 0.13.
With `N#Cc1c(-n2c3ccc(Br)cc3c3cc(Br)ccc32)c(C#N)c(-n2c3ccc(Br)cc3c3cc(Br)ccc32)c(-n2c3ccc(Br)cc3c3cc(Br)ccc32)c1-n1c2ccc(Br)cc2c2cc(Br)ccc21` the photoluminescence quantum yield (in Cc1ccccc1) was 0.67.
For `O=C1c2ccccc2C(=O)c2cc(-c3ccc(N(c4ccccc4)c4ccccc4)cc3)ccc21`, the photoluminescence quantum yield (in CCCCCC) was 0.392, the photoluminescence quantum yield (in CCOC(C)=O) was 0.0001 and the photoluminescence quantum yield (in CCOCC) was 0.0129. It also gave a photoluminescence quantum yield (in Cc1ccccc1) of 0.092, a photoluminescence quantum yield (in ClC(Cl)(Cl)Cl) of 0.326 and a photoluminescence quantum yield (in ClCCl) of 0.
`CC(C)(C)c1ccc2c(c1)c1cc(C(C)(C)C)ccc1n2-c1c(C#N)c(-n2c3ccc(C(C)(C)C)cc3c3cc(C(C)(C)C)ccc32)c(-n2c3ccc(C(C)(C)C)cc3c3cc(C(C)(C)C)ccc32)c(-n2c3ccc(C(C)(C)C)cc3c3cc(C(C)(C)C)ccc32)c1-n1c2ccc(C(C)(C)C)cc2c2cc(C(C)(C)C)ccc21` gave a photoluminescence quantum yield (in Cc1ccccc1) of 0.86.
In the case of `CC(C)(C)c1ccc(C(C)(C)C)c(N2C(=O)c3cccc4c(-c5ccc(-c6ccc(N(c7ccccc7)c7ccccc7)cc6)s5)ccc(c34)C2=O)c1`, the photoluminescence quantum yield (in Cc1ccccc1) is reported as 0.56.
`O=c1ccc2ccccc2o1` showed a photoluminescence quantum yield (in O) of 0.001.
`CCOC(=O)c1nn(-c2ccc(OC)cc2)nc1N1CCCC1` gave a photoluminescence quantum yield (in CC#N) of 0.731.
`CCC1=C(C)C2=Cc3c4ccccc4c4n3[B-](c3ccc5ccc6cccc7ccc3c5c67)(Oc3ccccc3-4)[N+]2=C1C` (centres undefined) showed a photoluminescence quantum yield (in CC#N) of 0.66, a photoluminescence quantum yield (in CCCCCC) of 0.72 and a photoluminescence quantum yield (in Cc1ccccc1) of 0.66. The photoluminescence quantum yield (in ClCCl) was 0.71.
`CCCCCCCCOc1ccc(C#Cc2ccc3oc4ccccc4c3c2)c(OCCCCCCCC)c1` showed a photoluminescence quantum yield (in ClCCl) of 0.45.
With `CCCCCCCCc1ccc(-n2c3c4ccccc4nnc3c3c2c2nnc4ccccc4c2n3-c2ccc(CCCCCCCC)cc2)cc1` the photoluminescence quantum yield (in Cc1ccccc1) was 0.
For `CCOC(=O)COc1ccc(/C=C/C2=C3c4ccccc4C(c4[nH]c(C)cc4C)=[N+]3[B-](F)(F)n3c(/C=C/c4ccc(OCC(=O)OCC)cc4)cc(C)c32)cc1`, the photoluminescence quantum yield (in C1CCOC1) was 0.05, the photoluminescence quantum yield (in CC#N) was 0.009 and the photoluminescence quantum yield (in CCCCCC) was 0.04. The photoluminescence quantum yield (in CO) was 0.002, the photoluminescence quantum yield (in Cc1ccccc1) was 0.009 and the photoluminescence quantum yield (in ClCCl) was 0.012.
For `COc1cc2cc(/C=C/c3ccc(/C=C/c4ccc(/C=C(\C#N)C(=O)O)cc4)cc3)c(=O)oc2cc1OC`, the photoluminescence quantum yield (in CC#N) was 0.24.
For `NCc1ccc2ccc3cccc4ccc1c2c34`, the photoluminescence quantum yield (in C1CCCCC1) was 0.38, the photoluminescence quantum yield (in CC#N) was 0.52 and the photoluminescence quantum yield (in CO) was 0.3. The photoluminescence quantum yield (in ClC(Cl)Cl) was 0.07.
For `Cc1cccn2c1cc1c3ccccc3nc(-c3ccc(Cl)o3)c12`, the photoluminescence quantum yield (in CS(C)=O) was 0.31.
For `c1ccc(-c2ccc(-c3nc(-n4c5ccccc5c5ccc6c7ccccc7n(-c7ccccc7)c6c54)nc(-n4c5ccccc5c5ccc6c7ccccc7n(-c7ccccc7)c6c54)n3)cc2)cc1`, the photoluminescence quantum yield (in Cc1ccccc1) was 0.1.
In the case of `CC(C)(C(=O)c1ccc(N2c3ccccc3C(C)(C)c3ccccc32)cc1)C(=O)c1ccc(N2c3ccccc3C(C)(C)c3ccccc32)cc1`, the photoluminescence quantum yield [1] is reported as 0.64.
In the case of `CCCC1(CCC)c2cc(-c3ccc(C(C)(C)C)cc3)ccc2-c2ccc(-c3ccc4c(c3)C(CCC)(CCC)c3cc(-c5ccc(C(C)(C)C)cc5)ccc3-4)cc21`, the photoluminescence quantum yield (in C1CCCCC1) is reported as 0.92.
For `O=S(=O)(c1cccc(N2c3ccccc3Oc3ccccc32)c1)c1cccc(N2c3ccccc3Oc3ccccc32)c1`, the photoluminescence quantum yield (in CCCCC(CC)n1c2ccc(-n3c4ccccc4c4ccccc43)cc2c2cc(-n3c4ccccc4c4ccccc43)ccc21) was 0.208 and the photoluminescence quantum yield (in c1cc(-n2c3ccccc3c3ccccc32)cc(-n2c3ccccc3c3ccccc32)c1) was 0.321.
`CN(C)c1ccc(C(=Cc2ccc(/C=C(\C#N)c3ccccc3)cc2)c2ccc(N(C)C)cc2)cc1` showed a photoluminescence quantum yield (in C1CCOC1) of 0.053.
For `c1ccc(/C(=C(\c2ccccc2)c2cc(-c3ccccc3)ccc2-c2ccccc2)c2cc(-c3ccccc3)ccc2-c2ccccc2)cc1`, the photoluminescence quantum yield (in C1CCOC1) was 0.3.
For `CC(=O)Nc1ccc2ccc3cccc4ccc1c2c34`, the photoluminescence quantum yield (in CC#N) was 0.23, the photoluminescence quantum yield (in CCCCOCCCC) was 0.27 and the photoluminescence quantum yield (in CO) was 0.13.
With `Clc1ccc(/C=C/c2nc3ccccc3o2)cc1` the photoluminescence quantum yield (in C1CCCCC1) was 0.14 and the photoluminescence quantum yield (in CO) was 0.02.
With `O=c1cc2c(Br)c(O)c3cccc4ccc(o1)c2c43` the photoluminescence quantum yield (in CC1CCCO1) was 0.15.
`COc1ccc(-c2nc(-c3ccc(-c4nc(-c5ccc(OC)cc5)c(-c5ccc(OC)cc5)[nH]4)s3)[nH]c2-c2ccc(OC)cc2)cc1` showed a photoluminescence quantum yield (in CC#N) of 0.62.
In the case of `Cc1cc2c(o1)c(Br)cc1c(C)cc(=O)oc12`, the photoluminescence quantum yield (in C1CCCCC1) is reported as 0.0004, the photoluminescence quantum yield (in C1COCCO1) is reported as 0.002 and the photoluminescence quantum yield (in CC#N) is reported as 0.0014. It also gave a photoluminescence quantum yield (in CCO) of 0.005 and a photoluminescence quantum yield (in OCC(F)(F)F) of 0.005.
Work on `Cn1c(=O)cc(C(=O)c2ccccc2)c2sc(-c3ccc(OC(F)(F)F)cc3)cc21` yielded a photoluminescence quantum yield (in CC#N) of 0.65 and a photoluminescence quantum yield (in ClCCl) of 0.85.
With `CC1=N/C(=C\c2cccc(N(C)C)c2)C(=O)N1CCO` the photoluminescence quantum yield (in C1CCOC1) was 0.12, the photoluminescence quantum yield (in CC#N) was 0.02 and the photoluminescence quantum yield (in CCCCCC) was 0.43.
Molecule `C(S/C=C/c1ccc(/C=C/SC=C2CCCCCCC2)cc1)=C1CCCCCCC1` has a photoluminescence quantum yield (in ClCCl) of 0.018.
In the case of `CCOC(=O)c1cc(C(=O)OCC)c2cc(C)ccc2n1`, the photoluminescence quantum yield (in CCO) is reported as 0.022.
Molecule `COC(=O)COc1ccc(/C=C/C2=[N+]3C(=C(c4ccc(N5CCCCC5)cc4)c4c(C)cc(C)n4[B-]3(F)F)C(C)=C2)cc1` has a photoluminescence quantum yield (in CO) of 0.87.
Work on `CC1=C(c2ccc(N(c3ccccc3)c3ccccc3)cc2)C(C)=[N+]2C1=C(c1c(-c3ccccn3)nc3ccccn13)c1c(C)c(-c3ccc(N(c4ccccc4)c4ccccc4)cc3)c(C)n1[B-]2(F)F` yielded a photoluminescence quantum yield (in ClCCl) of 0.0078.
Molecule `COc1ccc(C2=[N+]3C(=Cc4c5ccc(OC)cc5c(-c5ccc(OC)cc5)n4[B-]3(F)F)c3ccc(OC)cc32)cc1` has a photoluminescence quantum yield (in ClCCl) of 0.49.
